{"source": "patent US20230391881A1", "about": "“COMPOSITIONS AND METHODS FOR OVERCOMING DR5-INDUCED IMMUNE EVASION BY SOLID TUMORS” (University of Virginia Patent Foundation, priority 2020, published 2023)", "key": {"PD-L1": {"test_system": "PD-L1", "experiment": "Western blotting / flow cytometry of PD-L1 and regulators in tumor cells", "type": "cell-based, human", "settings": "for reversal of PD-L1 stability generated by DR5 agonists: MDA-MB-436 cells pretreated 0-8 hours with inhibitor, then DR5 agonist 6 hours", "experimental": "Western Blotting. Cells were cultured overnight in tissue culture-treated 6-well plates prior to treatment. After antibody treatment for 48 hours or another indicated time, cells were rinsed with PBS and then lysed with RIPA buffer supplemented with protease inhibitor cocktail (ThermoFisher Scientific). Centrifugation at 14000 rpm for 30 minutes cleared lysates and protein was quantified by PIERCE™ BCA Protein Assay Kit (ThermoFisher Scientific). Western blotting was performed using the Bio-Rad SDS-PAGE Gel system. Briefly, 30 μg of protein was resolved on 10% Bis-Tris gels and then transferred onto PVDF membrane. Membranes were blocked for one hour at room temperature in TBS+0.1% Tween (TBST) with 5% non-fat dry milk. Membranes were probed overnight at 4° C. with primary antibodies. Membranes were washed three times in TBST and then incubated with anti-rabbit or anti-mouse secondary antibodies (1/10,000 dilution, coupled to peroxidase) for 1 hour at room temperature. Membranes were then washed three times with TBST and immunocomplexes were detected with SUPERSIGNAL™ West Pico Chemiluminescent Substrate (ThermoFisher Scientific). Images were taken using a Bio-Rad Gel Doc Imager system.\n(§1) Flow cytometry. The cell surface expression of PD-L1, CD47, huDR5, muDR5, CD8, CD4, CD25 etc. was analyzed by flow cytometry. Overnight grown tumors were trypsinized and suspended in FACS buffer (PBS containing 2% FBS). Single cell suspensions were then incubated with primary DR4/DR5 antibodies for 1 hour at 4° C. with gentle mixing. Following wash with FACS buffer, the cells were then incubated with fluorescently labeled anti-Rabbit antibody for 1 hour. Cells were washed and flow cytometry was performed using a BD FACSCALIBUR™ flow cytometer. The data was analyzed by FCS Express (De Novo Software, Los Angeles, California, United States of America) and FlowJo."}, "PD-L1-PD-1 interaction": {"test_system": "PD-L1-PD-1 interaction", "experiment": "PD-1/PD-L1 tumor cell-Jurkat cell co-culture luciferase reporter assay", "type": "cell-based, human", "settings": "tumor cells pretreated with ROCK1 inhibitor then DR5 agonist", "experimental": "PD-1/PD-L1 reporter assay. […] The original kit contains PD-1 effector Jurkat T cells stably express human PD-1 and NFAT-induced luciferase, while PD-L1 aAPC/CHO-K1 cells stably express human PD-L1 and a cell surface protein designed to activate cognate TCRs in an antigen-independent manner. […] Antibodies blocking PD-1-PD-L1 interaction removes inhibitory signals, resulting in luciferase activation. […] Next day, medium was removed from the culture plate and cells were treated with diluted DR5 agonist antibodies. […] Glo response NFAT-luc2/PD1 Jurkat cells (Promega) were re-suspended in assay buffer and incubated with 1 μg/ml anti-CD3 for 2 hours to activate PD1 Jurkat cells. […] After 6 hours of co-culture, assay plates were removed from the incubator; content of each well were mixed thoroughly with the help of multi-channel pipette and then transferred to a white opaque assay plate. 10 mg/ml luciferase reagent was prepared and loaded into the plate reader, which injects 50 μl reagent in each well and measures luminescence immediately. Data was analyzed using Microsoft Excel software. Wherever indicated, inhibitors (ERK, STAT3, Caspase, ROCK1 etc.) were added 2-3 hrs prior to DR5 agonist antibodies in 96 well culture of tumors as described herein."}, "4T1 tumors": {"test_system": "4T1 tumors", "experiment": "Tumor regression in 4T1 syngeneic TNBC tumor models", "type": "in vivo, mouse", "settings": "BALB/c mice, 4T1 tumors; MD5-1 50 μg i.p., GSK269962 2 mg/kg into the tumors (FIG. 4K)", "experimental": "FIGS. 4A-4K. DR5 agonist activated ROCK1 functions to help PD-L1 surface mobilization. (FIGS. 4A and 4B) KMTR2 and lexatumumab treated MDA-MB-436 and OVCAR3 (respectively) lysates for indicated early time points were analyzed for caspase-8, caspase-3, ROCK1, pMLC, PARP, PD-L1 and CMTM6 etc. as indicated. Vertical arrows indicate sequential kinetics of caspase-8, ROCK1, and caspase-3 activation, arrows with “n.s.” below them indicate nonspecific band by ROCK1 antibody. (FIG. 4C) OVCAR3 cells were treated with pMLC activating ionophore A23187 (positive control) and lexatumumab ±ROCK1 inhibitors or ±rDR5 or ±rFOLR1. Lysates were later analyzed for ROCK1, pMLC, caspase-3 and PARP with GAPDH as loading control. (FIG. 4D) MDA-MB-436 and OVCAR3 cells were treated with indicated ROCK1 inhibitors 2 hours prior to DR5 agonist KMTR2 treatment. After 4 hours flow cytometry was used to analyze surface PD-L1. […] Relative luciferase signal was quantified and plotted after subtraction of background signal from untreated cells. […] Tumor volumes were quantified at indicated days by caliper measurements. […] Statistical significance in FIG. 4J was determined by unpaired student t-test and in FIG. 4K using two-tailed […] Wilcoxon Mann-Whitney test. […]\nFIGS. 6A-6M. […] CD8/CD45 and CD4/CD45 expressing cells were measured by flow cytometry. […] Harvested tumors homogenized followed by quantitation. […]"}, "MDA-MB-436 cells": {"test_system": "MDA-MB-436 cells", "experiment": "Flow cytometry of surface PD-L1 on tumor cells treated with DR5 agonist antibodies (FIG. 20B)", "type": "cell-based, human", "experimental": "FIGS. 20A-20C. (FIG. 20A) 3 biological replicates of total PD-L1 and GAPDH from triple negative breast cancer cell (MDAMB-436) and ovarian cell (OVCAR-3) lysates treated with lexatumumab for 6 hours. (FIG. 20B) Raw mean fluorescent intensity (MFI) and % positive PD-L1 counts from the cells treated with indicated DR5 agonist antibodies. MFI values are shown on the top of solid color bars. There are multiple instances (shown on the top) where despite having lower % positive PD-L1 population, MFI values were higher after indicated DR5 agonist treatments. As an example, in MDA-MB-436 cells treated with tigatuzumab and lexatumumab, lexatumumab treated cells had higher % positive PD-L1 population (9.32 vs 11.97), however MFI was higher in tigatuzumab treated population (107.54 vs 45.87). (FIG. 20C) KMTR2 treated (50 μg, 4 doses) UCD52 TNBC PDX tumors were stained for PD-L1 using immunohistochemistry (IHC). 3 additional representative images are shown. Also see FIG. 1L.\nas §1\nPD-L1 surface expression analysis of tumor derived cells. The cell surface expression of PD-L1 from tumor-derived cell was analyzed by flow cytometry. Isolated cells were suspended in FACS buffer (PBS containing 1% FBS). The single cell suspension was then incubated with primary PD-L1 antibodies (1:400 dilution) for 1 hour at 4° C. with gentle mixing. […] Following 3 times wash with FACS buffer, the cells were then incubated with fluorescently labeled (alexa 488) anti-Rabbit secondary antibody for 1 hour. Cells were then washed 3-4 times with FACS buffer and flow cytometry was performed using BD FACSCALIBUR™. The data was analyzed by FCS Express (De Novo Software) and FlowJo software."}}, "note": "*1 amine or outer side, *2 acyl side, *3 side chain or, on linkers, in order; H or OH if unused. Where a SMILES comes first, the peptide text is derived from it. Bridges are numbered along the chain shown (N, C = ends). Roman numbers before positions name the chains, in order. [ ]: non-standard residue; d: D form. The star is where a group is joined. Actinocin(9to1) = Cc1c2oc3c(C)ccc(C(=O)[*:1])c3nc-2c(C(=O)[*:2])c(N)c1=O; NMeV = CN[C@H](C(=O)O)C(C)C; Cbz = O=C(OCc1ccccc1)*; Sar = CNCC(=O)O", "data": [{"compound": "C[C@@H]1C[C@@H]([C@H](O)CC2CC(=O)NC(=O)C2)C(=O)[C@@H](C)C1", "note": "[Cycloheximide]", "values": [{"measurement": "reversal of PD-L1 stability generated by DR5 agonists", "setting": "PD-L1", "result": "did not also reversed PD-L1 stability"}]}, {"compound": "CCn1c(-c2nonc2N)nc2cnc(Oc3cccc(NC(=O)c4ccc(OCCN5CCOCC5)cc4)c3)cc21", "note": "[GSK269962, N-(3-{[2-(4-Amino-1,2,5-oxadiazol-3-yl)-1-ethyl-1H-imidazo[4,5-c]pyridin-6-yl]oxy}phenyl)-4-[2-(morpholin-4-yl)ethoxy]benzamide]", "values": [{"measurement": "luciferase activity in co-culture reporter assay in presence of ROCK1 inhibitors", "setting": "PD-L1-PD-1 interaction", "result": "Increased average luciferase intensity"}, {"measurement": "Tumor regression efficacy (tumor volume)", "setting": "4T1 tumors", "result": "ineffective"}]}, {"compound": "CC1=C(C(=O)Nc2cc3cn[nH]c3cc2F)C(c2ccc(C(F)(F)F)cc2)CC(=O)N1", "note": "(centres unmarked) [GSK429286, N-(6-Fluoro-1H-indazol-5-yl)-6-methyl-2-oxo-4-[4-(trifluoromethyl)phenyl]-3,4-dihydro-1H-pyridine-5-carboxamide]", "values": [{"measurement": "luciferase activity in co-culture reporter assay in presence of ROCK1 inhibitors", "setting": "PD-L1-PD-1 interaction", "result": "Increased average luciferase intensity"}]}, {"compound": "CC(C)C[C@@H](C=O)NC(=O)[C@H](CC(C)C)NC(=O)[C@H](CC(C)C)NC(=O)OCc1ccccc1", "note": "[MG132] (Cbz-Leu-Leu-Leu-aldehyde)", "values": [{"measurement": "PD-L1 stability with proteasome inhibition (MG132)", "setting": "PD-L1; cell surface or total lysates", "result": "increased overall PD-L1"}]}, {"compound": "Cc1c2oc3c(C)ccc(C(=O)N[C@@H]4C(=O)N[C@H](C(C)C)C(=O)N5CCC[C@H]5C(=O)N(C)CC(=O)N(C)[C@@H](C(C)C)C(=O)O[C@@H]4C)c3nc-2c(C(=O)N[C@@H]2C(=O)N[C@H](C(C)C)C(=O)N3CCC[C@H]3C(=O)N(C)CC(=O)N(C)[C@@H](C(C)C)C(=O)O[C@@H]2C)c(N)c1=O", "note": "[actinomysin-D] (I: T[dV]P[Sar][NMeV] / II: T[dV]P[Sar][NMeV]; ester I:1-I:C, II:1-II:C; linker I:N-II:N via Actinocin(9to1))", "values": [{"measurement": "reversal of PD-L1 stability generated by DR5 agonists", "setting": "PD-L1", "result": "did not also reversed PD-L1 stability"}]}, {"compound": "tigatuzumab: Monospecific Antibody, Human DR5 activator; VL and VH SEQ ID NOs: 3 and 4", "values": [{"measurement": "PD-L1 mean fluorescent intensity (MFI)", "setting": "MDA-MB-436 cells; MDA-MB-436 cells treated with DR5 agonist antibody (FIG. 20B)", "result": 107.54}, {"measurement": "% positive PD-L1 population", "setting": "MDA-MB-436 cells; MDA-MB-436 cells treated with DR5 agonist antibody, raw flow cytometry counts (FIG. 20B)", "result": 9.32, "unit": "%"}]}]}
